The results in this text go back to US8680111B2 (Pfizer Inc., priority 2012, dated 2014).

Experiment [1] has as its target T1, human recombinant wild-type ALK kinase domain (amino acids 1093-1411) (Homo sapiens, UniProt Q9UM73).
T1 construct: ALK kinase domain (amino acids 1093-1411); made in house
Nature of the experiment: Wild-type ALK enzyme assay (microfluidic mobility shift). The format is biochemical. As to conditions: ATP 60 μM, competitive inhibition fit, read-out: WT ALK enzyme assay (Ki).
Procedure: The reactions were incubated for 1 h at room temperature, stopped by the addition of 0.1 M EDTA, pH 8, and the extent of reactions (˜15-20% conversion with no inhibitor) was determined after electrophoretic separation of the fluorescently labeled peptide substrate and phosphorylated product on an LabChip EZ Reader II (Caliper Life Sciences, Hopkinton, Mass.).

For experiment [2], the target named is T2, human recombinant L1196M ALK kinase domain (amino acids 1093-1411) (Homo sapiens, UniProt Q9UM73, L1196M).
T2 construct: ALK kinase domain (amino acids 1093-1411); made in house
Put plainly: L1196M mutant ALK enzyme assay (microfluidic mobility shift). As to conditions: ATP 60 μM, 0.5 nM enzyme, competitive inhibition fit; read-out: L1196M ALK enzyme assay (Ki). In kind it is biochemical.

For experiment [3], the target named is T3, WT EML4-ALK (NIH-3T3 EML4-ALK wt v1 cells) (Homo sapiens, UniProt Q9UM73).
T3 construct: expressed in transfected cells; the other entry of the earlier key: EML4 (Q9HC35, Echinoderm microtubule-associated protein-like 4)
Put plainly: Cellular phospho-ALK (Tyr1604) ELISA assay for WT EML4-ALK. The format is cell-based. As to conditions: 1 hour, read-out: ELISA assay for WT EML4-ALK (IC50).

Experiment [4] addresses T4, L1196M EML4-ALK (NIH-3T3 EML4-ALK v1 L1196M cells) (Homo sapiens, UniProt Q9UM73, L1196M).
T4 construct: expressed in transfected cells; the other entry of the earlier key: EML4 (Q9HC35, Echinoderm microtubule-associated protein-like 4)
Put plainly: Cellular phospho-ALK (Tyr1604) ELISA assay for L1196M EML4-ALK. In kind it is cell-based. As to conditions: NIH-3T3 EML4-ALK v1 L1196M cells, 1 hour, phospho-ALK (Tyr1604); read-out: ELISA assay for L1196M EML4-ALK (IC50).

As for `COc1snc2c1-c1cnc(N)c(c1)O[C@H](C)c1cc(F)ccc1C(=O)N(C)C2` [Example 3, (10R)-7-amino-12-fluoro-3-methoxy-10,16-dimethyl-16,17-dihydro-8,4-(metheno)isothiazolo[4,3-h][2,5,11]benzoxadiazacyclotetradecin-15(10H)-one], the Ki in experiment [1] was less than 0.2 nM; in experiment [2], 0.2 nM. Further, the half-maximal inhibitory concentration (IC50) in experiment [3] is 0.99 nM; in experiment [4], 22.2 nM.

Take `CCc1snc2c1-c1cnc(N)c(c1)O[C@H](C)c1cc(F)ccc1C(=O)N(C)C2` [Example 110, (10R)-7-amino-3-ethyl-12-fluoro-10,16-dimethyl-16,17-dihydro-8,4-(metheno)[1,2]thiazolo[4,3-h][2,5,11]benzoxadiazacyclotetradecin-15(10H)-one]: the inhibition constant Ki in experiment [1] is 0.56 nM; in experiment [2] it was 7.3 nM. For the same molecule, the half-maximal inhibitory concentration (IC50) came to 9.99 nM in experiment [3] and 447 nM in experiment [4].

In the case of `CCn1ncc2c1-c1cnc(N)c(c1)O[C@H](C)c1cc(F)ccc1C(=O)N(C)C2` [Example 27, (10R)-7-amino-3-ethyl-12-fluoro-10,16-dimethyl-16,17-dihydro-3H-8,4-(metheno)pyrazolo[3,4-h][2,5,11]benzoxadiazacyclotetradecin-15(10H)-one], the Ki in experiment [1] was 0.38 nM; in experiment [2] it was 5.3 nM. Further, the values for the IC50 in experiment [3] and in experiment [4] were 9.15 nM and 157 nM, respectively.

`C[C@H]1Oc2nc(cnc2N)-c2c(nn(CC(F)F)c2C#N)CN(C)C(=O)c2ccc(F)cc21` [Example 91, (10R)-7-amino-2-(2,2-difluoroethyl)-12-fluoro-10,16-dimethyl-15-oxo-10,15,16,17-tetrahydro-2H-8,4-(azeno)pyrazolo[4,3-h][2,5,11]benzoxadiazacyclotetradecine-3-carbonitrile]: the Ki was determined as 0.177 nM in experiment [1] and 0.315 nM in experiment [2]. Further, the values for the concentration for half-maximal inhibition (IC50) in experiment [3] and in experiment [4] were 0.68 nM and 5.88 nM, respectively.

`CCn1nnc2c1-c1cnc(N)c(c1)O[C@H](C)c1cc(F)ccc1C(=O)N(C)C2` [Example 133, (10R)-7-amino-3-ethyl-12-fluoro-10,16-dimethyl-16,17-dihydro-3H-4,8-(metheno)[1,2,3]triazolo[4,5-h][2,5,11]benzoxadiazacyclotetradecin-15(10H)-one]: the Ki in experiment [1] is 3.06 nM; in experiment [2], 32.8 nM. Further, the IC50 in experiment [3] was found to be 95.8 nM; in experiment [4], 997 nM.

As to `COc1nn(C)c2c1-c1cnc(N)c(c1)OC(C)c1cccnc1C(=O)N(C)C2` (single isomer, unassigned) [Example 65, 7-amino-3-methoxy-1,10,16-trimethyl-16,17-dihydro-1H-8,4-(metheno)-pyrazolo[4,3-g]pyrido[2,3-l][1,4,10]oxadiazacyclotetradecin-15(10H)-one], the Ki was 0.88 nM in experiment [1] and 9.8 nM in experiment [2]. In addition, the 50% inhibitory concentration (IC50) in experiment [3] came to 9.36 nM; in experiment [4] it was 313 nM.

For `CC(C)n1nc2c(c1C#N)-c1cnc(N)c(n1)O[C@H](C)c1cc(F)ccc1C(=O)N(C)C2` [Example 92, (10R)-7-amino-12-fluoro-10,16-dimethyl-15-oxo-2-(propan-2-yl)-10,15,16,17-tetrahydro-2H-8,4-(azeno)pyrazolo[4,3-h][2,5,11]benzoxadiazacyclotetradecine-3-carbonitrile], the Ki in experiment [1] was 0.23 nM; in experiment [2], 0.21 nM. The values for the concentration for half-maximal inhibition (IC50) in experiment [3] and in experiment [4] were 0.47 nM and 3.66 nM, respectively.

Consider `CCc1nsc2c1-c1cnc(N)c(c1)O[C@H](C)c1cc(F)ccc1C(=O)N(C)C2` [Example 112, (10R)-7-amino-3-ethyl-12-fluoro-10,16-dimethyl-16,17-dihydro-8,4-(metheno)[1,2]thiazolo[4,5-h][2,5,11]benzoxadiazacyclotetradecin-15(10H)-one], for which the Ki in experiment [1] turned out to be 0.32 nM; in experiment [2] it was 3.4 nM. Further, the IC50 in experiment [3] worked out at 9.67 nM; in experiment [4] it was 248 nM.

Consider “7-amino-12-fluoro-3-methoxy-1,16,17-trimethyl-16,17-dihydro-1H-8,4-(azeno)pyrazolo[4,3-h][2,5,11]benzoxadiazacyclotetradecin-15(10H)-one [Example 124]”, for which the Ki amounted to 2.1 nM in experiment [1] and 7.4 nM in experiment [2]. Also, the 50% inhibitory concentration (IC50) in experiment [3] stood at 56.2 nM; in experiment [4], 873 nM.

On to `C[C@H]1Oc2cc(cnc2N)-c2c(nn(C)c2C#N)CN(C)Cc2ccc(F)cc21` [Example 36, (10R)-7-amino-12-fluoro-2,10,16-trimethyl-10,15,16,17-tetrahydro-2H-4,8-(metheno)pyrazolo[4,3-h][2,5,11]benzoxadiazacyclotetradecine-3-carbonitrile], for which the values for the Ki in experiment [1] and in experiment [2] were less than 0.2 nM and 0.56 nM, respectively. Besides, the figures for the IC50 in experiment [3] and in experiment [4] were 0.18 nM and 2.64 nM, respectively.

Regarding “12-fluoro-1,14-dimethyl-1,4,5,6,7,8-hexahydro-14H-16,20-(metheno)-pyrazolo[4,3-g][1,14,11]benzodioxazacycloheptadecin-17-amine [Example 95]”, the results for the inhibition constant Ki in experiment [1] and in experiment [2] were 0.35 nM and 1.9 nM, respectively. Also, the figures for the half-maximal inhibitory concentration (IC50) in experiment [3] and in experiment [4] were 10.4 nM and 169 nM, respectively.

On to `C[C@H]1Oc2cc(cnc2N)-c2c(nnn2CC2CCC2)CN(C)C(=O)c2ccc(F)cc21` [Example 135, (10R)-7-amino-3-(cyclobutylmethyl)-12-fluoro-10,16-dimethyl-16,17-dihydro-3H-8,4-(metheno)[1,2,3]triazolo[4,5-h][2,5,11]benzoxadiazacyclotetradecin-15(10H)-one], for which the inhibition constant (Ki) is 2.1 nM in experiment [1] and 12.6 nM in experiment [2]. Moreover, the values for the IC50 in experiment [3] and in experiment [4] were 45.9 nM and 814 nM, respectively.

Turning to `CC1Cc2cc(cnc2N)-c2c(nn(C)c2C#N)CN(C)C(=O)c2ccc(F)cc21` (centres unmarked) [Example 61, 7-amino-12-fluoro-2,10,16-trimethyl-15-oxo-2,9,10,15,16,17-hexahydro-8,4-(metheno)pyrazolo[3,4-d][2,8]benzodiazacyclotetradecine-3-carbonitrile], the inhibition constant Ki in experiment [1] was 0.15 nM; in experiment [2] it was 0.17 nM. Also, the IC50 in experiment [3] is 4.82 nM; in experiment [4], 17.1 nM.

Take `C[C@H]1Oc2cc(cnc2N)-c2c(C#N)nn(C)c2CN(C)C(=O)c2ccc(F)cc21` [Example 114, (10R)-7-amino-12-fluoro-1,10,16-trimethyl-15-oxo-10,15,16,17-tetrahydro-1H-8,4-(metheno)pyrazolo[4,3-h][2,5,11]benzoxadiazacyclotetradecine-3-carbonitrile]: the Ki in experiment [1] was found to be 0.271 nM; in experiment [2] it was 1.36 nM. For the same molecule, the results for the concentration for half-maximal inhibition (IC50) in experiment [3] and in experiment [4] were 3.29 nM and 78.2 nM, respectively.

Regarding `CC1Oc2cc(cnc2N)-c2ccccc2CN(C)C(=O)c2ccc(F)cc21` (centres unmarked) [Example 8, 8-amino-3-fluoro-5,17-dimethyl-16,17-dihydro-7,11-(metheno)dibenzo[g,l]-[1,4,10]-oxadiazacyclotetradecin-18(5H)-one], the results for the Ki in experiment [1] and in experiment [2] were 0.9 nM and 10 nM, respectively. For the same molecule, the IC50 turned out to be 12.1 nM in experiment [3] and 680 nM in experiment [4].

With `CC1Cc2cc(cnc2N)-c2c(nn(C)c2C(N)=O)CN(C)C(=O)c2ccc(F)cc21` (centres unmarked) [Example 62, 7-amino-12-fluoro-2,10,16-trimethyl-15-oxo-2,9,10,15,16,17-hexahydro-8,4-(metheno)pyrazolo[3,4-d][2,8]benzodiazacyclotetradecine-3-carboxamide], the inhibition constant (Ki) in experiment [1] came to 137 nM; in experiment [2], 253 nM. In addition, the results for the IC50 in experiment [3] and in experiment [4] were 7610 nM and greater than 10000 nM, respectively.

Regarding `Cc1n[nH]c2c1-c1cnc(N)c(c1)OCc1cc(F)ccc1OCCC2` [Example 38, 12-fluoro-3-methyl-1,16,17,18-tetrahydro-10H-8,4-(metheno)pyrazolo[3,4-e][1,12,9]benzodioxazacyclopentadecin-7-amine], the inhibition constant (Ki) in experiment [1] was determined as 0.61 nM; in experiment [2], 5.7 nM. Also, the half-inhibitory concentration (IC50) came to 12 nM in experiment [3] and 201 nM in experiment [4].

As for `COc1nn(C)c2c1-c1cnc(N)c(c1)OC(CF)c1cc(F)ccc1C(=O)N(C)C2` (single isomer, unassigned) [Example 86, 7-amino-12-fluoro-10-(fluoromethyl)-3-methoxy-1,16-dimethyl-16,17-dihydro-1H-8,4-(metheno)pyrazolo[4,3-h][2,5,11]benzoxadiazacyclotetradecin-15(10H)-one], the Ki in experiment [1] is less than 0.2 nM; in experiment [2], 0.1 nM. The IC50 in experiment [3] turned out to be 0.45 nM; in experiment [4], 2.57 nM.

As to `CCN1Cc2c(c(C)nn2C)-c2cnc(N)c(c2)OC(C)c2cc(F)ccc2C1=O` (single isomer, unassigned) [Example 9, 7-amino-16-ethyl-12-fluoro-1,3,10-trimethyl-16,17-dihydro-1H-8,4-(metheno)pyrazolo[4,3-h][2,5,11]benzoxadiazacyclotetradecin-15(10H)-one], the inhibitory constant (Ki) in experiment [1] turned out to be 0.2 nM; in experiment [2] it was 1.06 nM. In addition, the IC50 in experiment [3] came to 0.35 nM; in experiment [4], 9.29 nM.

`CCC1Oc2cc(cnc2N)-c2c(OC)nn(C)c2CN(C)C(=O)c2ccc(F)cc21` (single isomer, unassigned) [Example 23, 7-amino-10-ethyl-12-fluoro-3-methoxy-1,16-dimethyl-16,17-dihydro-1H-8,4-(metheno)pyrazolo[4,3-h][2,5,11]benzoxadiazacyclotetradecin-15(10H)-one]: the inhibition constant Ki is less than 0.2 nM in experiment [1] and 0.29 nM in experiment [2]. For the same molecule, the IC50 in experiment [3] was found to be 0.77 nM; in experiment [4], 10.1 nM.
